Data reported in US20130317092A1 (priority 2007, published 2013).
Numbered stars: 1 amine (or outer) side, 2 acyl side, 3 side chain; on linkers, the order of the positions; unused ones are H or OH. Bridge positions count the residues as written; N and C are the ends. Square brackets hold non-standard residues; d marks the D form. Peptide text beside a SMILES is read from it. I, II: the chains in the order shown. Actinocin(9to1) = Cc1c2oc3c(C)ccc(C(=O)[*:1])c3nc-2c(C(=O)[*:2])c(N)c1=O; NMeV = CN[C@H](C(=O)O)C(C)C; Sar = CNCC(=O)O

How the values were obtained:
activated caspase-3 = assay: Activated caspase-3 immunostaining in Meg-01 cells; format: cell-based, human; details: for caspase-3 activation induced by Thapsi or ARP, with co-treatment: Thapsi or ARP plus inhibitor; for caspase-3 activation induced by Thapsi, with co-treatment: Thapsi plus inhibitor
AChE-R = AChE-R protein immunocytochemistry in Meg-01 cells; format: cell-based, human; details: 24 hours
AChmiRNA (miRNA-181a) = AChmiRNA (miRNA-181a) level by real-time RT-PCR in Meg-01 cells; format: cell-based, human; details: for AChmiRNA levels on co-treatment with Thapsi: Meg-01 cells co-treated with Thapsi and inhibitor; for ARP-induced decrease of AChmiRNA on co-treatment: Meg-01 cells, ARP plus inhibitor
PKCβII = PKCβII immunocytochemistry in Meg-01 cells; format: cell-based, human; details: 24 hours
activated caspase-9 = assay: Activated caspase-9 immunostaining in Meg-01 cells; format: cell-based, human
Meg-01 cells [1] = assay: DNA fragmentation by TUNEL assay in Meg-01 cells; format: cell-based, human
Bcl-2 = Bcl-2 immunostaining in Meg-01 cells; format: cell-based, human
Meg-01 cells [2] = assay: Scanning electron microscopy of Meg-01 cell surface (megakaryocytic maturation); format: cell-based, human; details: 24 hour treatment
AChE-R mRNA = AChE-R mRNA level (RT-PCR, fluorescent in situ hybridization) in Meg-01 cells; format: cell-based, human
AChE-S = AChE-S protein immunocytochemistry in Meg-01 cells; format: cell-based, human; details: 24 hours
Meg-01 cells [3] = assay: Ploidy / DNA content of Meg-01 cells by FACS and propidium iodide; format: cell-based, human; details: 72 hours
Meg-01 cells [4] = assay: Nuclear area measurement of Meg-01 cells; format: cell-based, human; details: 24 hours
[5] = system: Murine macrophage RAW 264.7 cells; assay: Nitric oxide production (nitrite, Griess) by RAW 264.7 macrophages; format: cell-based; details: LPS 1 μg/ml, IFN-γ 4 ng/ml, oligos 100 nM
Protocol: Murine macrophage RAW 264.7 cells were cultured in 48 well plates (50×10^3 cells per well). The production of NO by these macrophages was examined following various stimuli (6 repetitions for each treatment) at three time intervals (6, 12 and 24 hours) as depicted in FIGS. 27a, 27b and 27c.
Mouse RAW cells, human U937 cells and primary human macrophages were treated for 24 h with 1 μM CpG oligonucleotides or 1 μg/ml bacterial lipopolysaccharide added to standard growth medium
Interleukin 6 expression was assayed by QRT-PCR, nitric oxide was measured by Griess assay and prostaglandin E2 levels were measured by R&D ELISA kit according to manufacturer's instructions.

[6] = system: 3′UTR fragment of human AChE cDNA; assay: Dot blot hybridization of LNA-modified oligos with PCR-amplified AChE 3′UTR; format: binding; details: 5′-32P-labeled LNA-modified oligos
Protocol: The common AChE 3′-UTR sequence was obtained from AY750146 (all mRNA sequence beginning from stop codon). 3′-UTR of AChE was amplified by RT-PCR using Promega reagents and total RNA isolated with QIAGEN RNeasy kit from post-mortem human brain, with primers including XhoI, NotI restriction sites in 5′ and 3′ primer, respectively. Primer sequences used were: (5′): […], (3′) (SEQ ID NO: 111): […] (SEQ ID NO: 112). Annealing temperature of 57° C. was used. PCR product was purified with QIAGEN QiaQuick kit, size of fragment verified in agarose gel, spotted on a dry HyBond nylon membrane in 2 ul drops, cross-linked to the membrane using 1200 mJ UV burst, and baked for 1 hr at 80° C. Membrane was blocked for at least 2 hours in solution containing 50% deionized formamide, 5×SSPE, 0.5% SDS, 5×Denhardt's Solution at 50° C.; and hybridized o/night in same conditions with 5′-32P-labeled probes mimicking miRs wholly or with mismatches as indicated, washed 4 times at 37° C. in 3×SSPE, 5% SDS, 10×Denhardt's solution; once at 42° C. in 1×SSPE, 1% SDS; exposed over up to 3 days to a PhosphorImager (Molecular Dynamics/GE Healthcare) plate, and signal quantified using FujiFilm's ImageGauge 4 software.

RAW 264.7 cells = assay: NO production of LPS-challenged RAW 264.7 cells transfected with miR mimics; format: cell-based, murine
Protocol: Murine RAW 264.7 macrophage-derived cell line known to express TLR4 and respond to endotoxin by production of pro-inflammatory mediators such as Nitric Oxide (NO), prostaglandins, and cytokines as ILE IL6, and TNFalpha were used (described in the preceding examples e.g., Examples 7 and 8). Cells were grown in 5 ml flasks in a humidified atmosphere in Dulbecco's modified Eagle's medium (DMEM, Biological Industries) supplemented with 10% fetal calf serum (FCS) and 2 mM L-glutamine at 37° C., 5% CO2.
Griess method was used to determine NO2 levels in medium in which macrophages had been cultured. 100 μl of each sample+100 μl of Griess reagent (1% sulfanilamide/0.1% naphthylethylenediamine dihydrochloride/2.5% H3PO4)—were incubated 10-20 min at room temperature. Read absorbance at 546 nm in micro-ELISA reader.
miR 132 and 182* (SEQ ID NOs: 54 and 93, respectively) were LNA modified (products are designated with SEQ ID NOs. 107 and 108, respectively). A locked nucleic acid (LNA), often referred to as inaccessible RNA, is a modified RNA. Ribose moiety of LNA nucleotide is modified with an extra bridge connecting 2′ and 4′ carbons. The bridge “locks” the ribose in 3′-endo structural conformation, which is often found in A-form of DNA or RNA. LNA nucleotides can be mixed with DNA or RNA bases in the oligonucleotide whenever desired. The locked ribose conformation enhances base stacking and backbone pre-organization.
electroporation and lipofection were used for cell transfection.
Oligos containing LNA modifications on every third base (Table 4) were obtained from Sigma-Proligo. Transfection was performed with Lipofectamine 2000 (Invitrogen, Carlsbad, Calif.) using 3 μg of oligo per sample. Briefly, cells were brought to 80%-90% confluence at the time of transfection. For each transfection sample, 3 μg oligo were diluted in 1 ml of RPMI-1640 while the lipofectamine reagent was diluted in 1 ml of RPMI-1640. After 5 minutes the diluted oligo and lipofectamine were combined and incubated for 20 minutes. This was added to the cells within the 75 ml flask, containing 6 ml RPMI complete+GM-CSF ([…] final oligo concentration). […]
To determine cell viability 40 μl of thiazolyl blue tetrazolium bromide (MTT) reagent (Sigma) at 5 mg/ml was added per sample well, incubated for 30 minutes at 37° C. Medium was removed, 400 μl of DMSO was added per well and absorbance read at 550 nm Griess method was used to determine NO2 levels in conditioned medium from macrophage cultures. […] Absorbance was read at 546 nm in a micro-ELISA reader. TNF-α, IL-6 levels were measured by Enzyme-Linked Immunosorbent Assay (ELISA) according to manufacturer's procedures (R&D Systems kits, MTA00, M6000B, respectively). All absorbance results were normalized using standard curves. […]

CO[C@H](C/C=C\C=C\CC/C=C/C[C@H](C)/C=C/C(=C\C(=O)O)CC(=O)O)/C(C)=C\C=C(/C)C(=O)O [Bongkrekic acid]
caspase-3 activation induced by Thapsi or ARP, with co-treatment (activated caspase-3; 24 hours): inhibited the caspase-3 activation induced by ER-calcium releasing or ARP

O=S(=O)(NCCNCC=Cc1ccc(Br)cc1)c1cccc2cnccc12 [H89, N-(2-((p-Bromocinnamyl)amino)ethyl)-5-isoquinolinesulfonamide]
increase in AChE-R immunoreactivity elicited by Thapsi or ARP, with co-treatment (AChE-R): blocked the characteristic increase in AChE-R immunoreactivity
caspase-3 activation induced by Thapsi or ARP, with co-treatment (activated caspase-3; 24 hours): prevented the differentiation-associated caspase-3 activation induced by both Thapsi and ARP
AChmiRNA levels on co-treatment with Thapsi (AChmiRNA (miRNA-181a)): restored the control levels of AChmiRNA
ARP-induced decrease of AChmiRNA on co-treatment (AChmiRNA (miRNA-181a)): prevented the ARP effect

CCCCCCCCCCCCCC(=O)O[C@@H]1[C@@H](C)[C@@]2(O)[C@@H](C=C(CO)C[C@]3(O)C(=O)C(C)=C[C@@H]23)[C@@H]2C(C)(C)[C@]12OC(C)=O [PMA, phorbol 12-myristate 13-acetate]
staining intensity for PKCβ (PKCβII): increased staining intensity for PKCβ

CN(C)C(=O)Oc1ccc[n+](C)c1 [Pyridostigmine]
caspase-3 activation induced by Thapsi, with co-treatment (activated caspase-3): inhibited the activation of caspase-3 induced by Thapsi

Cc1c2oc3c(C)ccc(C(=O)N[C@@H]4C(=O)N[C@H](C(C)C)C(=O)N5CCC[C@H]5C(=O)N(C)CC(=O)N(C)[C@@H](C(C)C)C(=O)O[C@@H]4C)c3nc-2c(C(=O)N[C@@H]2C(=O)N[C@H](C(C)C)C(=O)N3CCC[C@H]3C(=O)N(C)CC(=O)N(C)[C@@H](C(C)C)C(=O)O[C@@H]2C)c(N)c1=O [actinomycin D, Actinomycin D] (I: T[dV]P[Sar][NMeV] / II: T[dV]P[Sar][NMeV]; ester I:1-I:C, II:1-II:C; linker I:N-II:N via Actinocin(9to1))
caspase-3 activation induced by Thapsi, with co-treatment (activated caspase-3): inhibited

ARP: human AChE-R C-terminal peptide GMQGPAGSGWEEGSGSPPGVTPLFSP (ARP peptide (synthetic))
incidence of activated caspase-9 positive cells (activated caspase-9): increased the incidence of positive cells for activated caspase-9 immunostaining
DNA fragmentation / cell death (TUNEL) (Meg-01 cells [1]): no significant changes
AChE-R protein level (immunohistochemistry) (AChE-R): increase also in the protein level
immunoreactivity of Bcl-2 (Bcl-2): decrease in the immunoreactivity of Bcl-2
cell surface morphology (scanning electron microscopy) (Meg-01 cells [2]): induced cell surface modifications
staining intensity for PKCβ (PKCβII): increased staining intensity for PKCβ
AChE-R mRNA level (RT-PCR) (AChE-R mRNA; 24 hours): increased the level of AChE-R mRNA
AChE-R mRNA level by FISH (population distribution) (AChE-R mRNA; agent alone): rightward shift in the population distribution of labeling intensity
expression of the AChE-S variant (immunohistochemistry) (AChE-S): decrease of expression of the AChE-S variant
incidence of activated caspase-3 positive cells (activated caspase-3; 24 hours, agent alone): increased the fraction of cells immunopositive for activated caspase-3
ploidy (DNA content) (Meg-01 cells [3]): increased ploidy
level of AChmiRNA (AChmiRNA (miRNA-181a); Meg-01 cells treated for 24 hours, agent alone): decreased the level of AChmiRNA
nuclear area / nuclei size (Meg-01 cells [4]): increased

Bisindolylmaleimide [BIM]
increase in AChE-R immunoreactivity elicited by Thapsi or ARP, with co-treatment (AChE-R): blocked the characteristic increase in AChE-R immunoreactivity
caspase-3 activation induced by Thapsi or ARP, with co-treatment (activated caspase-3; 24 hours): inhibited the activation of caspase-3 induced by both treatments
AChmiRNA levels on co-treatment with Thapsi (AChmiRNA (miRNA-181a)): restored the control levels of AChmiRNA
ARP-induced decrease of AChmiRNA on co-treatment (AChmiRNA (miRNA-181a)): prevented the ARP effect

IFN-γ: interferon (IFN)-γ
Nitrite concentration reflecting NO production ([5]; RAW 264.7, 6 hours): 8 µM
Nitrite concentration reflecting NO production ([5]; RAW 264.7, 12 hours): 26 µM
Nitrite concentration reflecting NO production ([5]; RAW 264.7, 24 hours): 54 µM

SEQ ID NO:20: similar oligo with an inverse sequence to AChmiON, used as negative control (CCACGUCCUCUUGCACCGUC; similar oligo to AChmiON, chemistry not explicitly stated, further chemistry not given here)
effect on the AChE splice shift (AChE-R mRNA; negative control oligo, data not shown): no significant effect on the AChE splice shift

miR-132 mut2A>G: miR-132 mimic with single mismatch in second nucleotide: TG+ACA+GTC+TAC+AGC+CAT+GGT+CG (TGACAGTCTACAGCCATGGTCG; LNA at 3, 6, 9, 12, 15, 18, 21, other sugars and backbone not given here)
binding to PCR-amplified AChE 3′UTR (dot blot signal) [6]: detectable signal only when bound to 50 ng of PCR product

miR-182* mimic: LNA-modified oligo mimicking miR-182*: TG+GTT+CTA+GAC+TTG+CCA+ACT+A (TGGTTCTAGACTTGCCAACTA; LNA at 3, 6, 9, 12, 15, 18, 21, other sugars and backbone not given here)
binding to PCR-amplified AChE 3′UTR (dot blot signal) [6]: significant binding to 20 ng doses of PCR product
activation of macrophage cell lines by LPS (NO production) after transfection (RAW 264.7 cells; LPS-exposed RAW-264.7 cells transfected with oligo (Example 13)): somewhat less prominently
endotoxin response (NO production) after transfection (RAW 264.7 cells; RAW 264.7 cells transfected or electroporated, then endotoxin challenge (Example 11)): significantly attenuate endotoxin response

miR-182* mut2G>A: miR-182* mimic with single mismatch in second nucleotide: TA+GTT+CTA+GAC+TTG+CCA+ACT+A (TAGTTCTAGACTTGCCAACTA; LNA at 3, 6, 9, 12, 15, 18, 21, other sugars and backbone not given here)
binding to PCR-amplified AChE 3′UTR (dot blot signal) [6]: disappeared altogether
